# Earlier results, collected in patent EP4691467A1, “USE OF INHIBITOR SPECIFICALLY TARGETING NLRP3 INFLAMMASOME” (Sichuan Jianlin Pharmaceutical Co., Ltd, priority 2023, dated 2024).
# Legend:
# [1] = test system: ASC specks; conditions: cells pre-treated with MCC950, pro-inflammatory conditions
# [2] = test system: IL-1β
# [3] = test system: experimental autoimmune encephalomyelitis (EAE); conditions: in vivo
# [4] = test system: CAPS mouse model
# [5] = test system: IL-18; conditions: Muckle Wells syndrome
# [6] = phase II clinical trials, rheumatoid arthritis; trials suspended
structure (smiles),measurement,setting,value
CC(C)(O)c1coc(S(=O)(=O)NC(=O)Nc2c3c(cc4c2CCC4)CCC3)c1 [MCC950],formation of ASC specks,[1],inhibit
same,production of IL-1β in vivo,[2],reduce
same,severity of disease models of multiple sclerosis (EAE),[3],attenuate
same,lethality of newborn mice,[4],reduce
same,extension of lifespan,[4]; newborn mice,~20 days
same,release of IL-18 in plasma,[5],shows efficacy in inhibiting
same,hepatotoxicity,[6],excessive hepatotoxicity
